Experimental data: the METLIN SMRT retention time set (Domingo-Almenara et al. 2019)

Test: gradient 5% acetonitrile 3 min, to 50% in 2 min, to 85% in 15 min, held 3 min, 100 µL/min
Details: column: Zorbax Extend-C18 2.1 x 50 mm; eluents: water / acetonitrile, 0.1% formic acid
Method in brief: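 Mixtures of ~100 pure standards were chromatographed on a Zorbax Extend-C18 column (2.1 × 50 mm, 1.8 μm) at 100 μL/min using water and acetonitrile, each with 0.1% formic acid. Detection used a quadrupole time-of-flight mass spectrometer in positive and negative ionization mode, and data collection spanned 3 months. Retention time was obtained from adduct peaks picked computationally and each checked manually.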

RP-LC retention time [s]	Compound
620	O=C(Nc1ccccc1F)N1CC(F)(F)C[C@H]1CN1CCCC1
598	O=C(c1cnccn1)N1CCc2nn(CC3CC3)c(=O)n2CC1
606	CC(C)NC(=O)c1ccc2c(c1)nc(CN(C)C(=O)Nc1ccc3c(c1)OCO3)n2C
673	CCC(=O)N1CCc2cc(C(=O)N(C)C)ccc21
858	O=C(c1cn2nc(Cl)ccc2n1)N1CCN(c2ccc(Cl)cc2)CC1
1010	O=C(Nc1nnc(SCc2c(F)cccc2Cl)s1)c1cc(C2CC2)on1
728	CC1Cc2nc(SCC(=O)NCC3CCCO3)n(-c3ccc(F)cc3)c(=O)c2S1 (centres undefined)
720	Cc1cc(N2CCN(S(=O)(=O)c3ccc(F)c(F)c3)CC2)nc(N2CCCC2)n1
622	Cn1c(=O)c(C(=O)N2CCN(c3ccccn3)CC2)nn(-c2ccc(F)cc2)c1=O
738	Cc1ccc2c(c1)N(CC(=O)NC1CC1)C(=O)C(C)O2 (centres undefined)
621	O=C(CN1C(=O)CCc2cc(Br)ccc21)N1CCN(c2ccccn2)CC1
848	Clc1ccc(Nc2nc(-c3ccncc3)nc3ccccc23)cc1
689	O=C(c1csc(S(=O)(=O)N2CCC(C(=O)N3CCCCC3)CC2)c1)N1CCOCC1
874	Cc1ccc(CNC(=O)C2(C)CN(S(C)(=O)=O)CC(=O)N2c2ccc(C)c(Cl)c2)cc1 (centres undefined)
955	CCOc1ccccc1NC(=O)N1CCC2(CC1)NC(=O)c1ccc(Cl)cc1N2CC
771	CCn1c(C2CCN(S(=O)(=O)c3cccc(C)c3)C2)nc2cccnc21 (centres undefined)
1050	CCN1C(=O)c2cc(S(=O)(=O)Nc3ccc(Cl)cc3)ccc2Oc2cccnc21
730	COc1ccc(Cc2nnc3sc(-c4cnccn4)nn23)cc1
759	Cc1cccc(NC(=O)C2CC(=O)N(c3n[nH]c4cccc(F)c34)C2)c1 (centres undefined)
902	Nc1cc(S(=O)(=O)N2CCCCCC2)ccc1Cl
1340	COc1cccc(C2Cn3nnc(-c4nc(-c5ccc(OCc6ccccc6)cc5)no4)c3CO2)c1 (centres undefined)
620	O=C(c1ccc2nc[nH]c2c1)N1CCCN(c2cc(-c3ccc(Cl)cc3)[nH]n2)CC1

RP-LC retention time [s]	Compound
561	CN(Cc1ccc(F)cc1Cl)C1CCc2nnc(C3CCOCC3)n2CC1 (centres undefined)
594	c1ccc(-c2nc(-c3ccnc(N4CCCC4)c3)no2)nc1
610	O=C(NCCc1ccncc1)C1CN(C(=O)c2cccs2)CC12CCCCC2 (centres undefined)
576	CN(C)CC1(O)CCC2(CCN(C(=O)c3ccsc3)CC2)CC1
763	Cc1sc(NC(=O)C(F)(F)F)nc1-c1ccc2c(c1)NC(=O)CO2
695	O=C(CNC(=O)c1c[nH]c2ccccc12)Nc1cc(Cl)ccc1O
974	COc1ccc(CNC(=O)c2c(C)sc3ccn(Cc4ccc(F)cc4)c(=O)c23)cc1
917	CCN1C(=O)c2ccccc2Sc2cc(-c3noc(CNC(=O)c4cccs4)n3)ccc21
745	COc1ccc(CCNS(=O)(=O)c2cccc3cccnc23)cc1OC
912	O=C(Nc1ccc(F)cc1F)c1cc2n(n1)CCCC2
744	Nn1c(Cc2ccccc2)nnc1Cc1ccccc1
630	CCCN1CCN(C(=O)c2ccc(S(=O)(=O)c3ccccc3)s2)CC1
707	O=C(Cn1nc2c3ccc(F)cc3ncn2c1=O)Nc1ccc2c(c1)OCO2
688	Cc1nnc(-c2nnc(NC3CCCCC3)c3ccccc23)o1
929	COC(=O)C1=CN(c2ccc(F)c(Cl)c2)c2ccc(F)cc2S1(=O)=O
1140	Cc1nc2cc(-c3noc(/C=C/c4ccccc4)n3)ccc2o1
881	CC(C)N1CCCn2cc(S(=O)(=O)Nc3cccc(OC(F)(F)F)c3)cc2C1=O
994	CC(C)c1cc(C(=O)Nc2cccc(Cl)c2)nn1C1CCS(=O)(=O)C1 (centres undefined)
930	CC(Oc1ccccc1)C(=O)Nc1ccc2c(c1)Sc1ncccc1C(=O)N2C(C)C (centres undefined)
870	CC(=O)N1CCc2cc(S(=O)(=O)C(C)CC(=O)N3CCN(c4ccc(Cl)cc4)CC3)ccc21 (centres undefined)
658	Cc1nc2cc(N3CCCC(C(=O)Nc4ccc(N5CCOCC5)cc4)C3)cnc2nc1C (centres undefined)
727	CCc1ccc(-n2cc(C(=O)O)nn2)cc1

RP-LC retention time [s]	Compound
704	COc1cc(NC(=O)N2CCC(OC3CCN(S(C)(=O)=O)CC3)CC2)cc(OC)c1
816	O=C(NC1CCCCCC1)C1CCCN(c2ncnc3c2nc2n3CCCCC2)C1 (centres undefined)
846	COc1ccc2[nH]cc(CCN3CC(C(=O)Nc4cc(C)cc(C)c4)CC3=O)c2c1 (centres undefined)
1120	Cc1cc(C)n(-c2nc(C)c(C(=O)Nc3ccccc3F)s2)n1
607	O=C(NCCc1cccs1)C1CCN(c2cc(N3CCOCC3)ncn2)CC1
782	CCOc1ccc(CC(=O)N2C[C@@H]3C[C@H](NC(=O)c4cccs4)[C@H]2C3)cc1
732	Cc1cccc(-c2ncccc2CNS(=O)(=O)c2ccccc2Cl)c1
707	Cc1ccc(-c2ncccc2CNS(=O)(=O)c2ccc(F)cc2)cc1
979	Cc1cccc(C(=O)Nc2nc(-c3ccc4c(c3)NC(=O)C(C)O4)c(C)s2)c1 (centres undefined)
643	COCC(=O)NC1CCC12CCN(C(=O)c1ccoc1)CC2 (centres undefined)
646	O=C(Cn1cnc2nc(N3CCCC(C(=O)NC4CC4)C3)sc2c1=O)NCc1ccccc1 (centres undefined)
764	COc1ccc(CCNC(=O)N2CCC(c3nnc(C(F)(F)F)o3)CC2)cc1
739	Cc1ccc(C(C)C)cc1S(=O)(=O)Nc1cccc(-c2cn3ccccc3n2)c1
666	CC(C)(C)c1ccc(-c2csc(N)n2)cc1
819	CCNC(=O)c1nc(C(=O)NCc2ccc(F)c(Cl)c2)cs1
702	Cc1noc(COC2CCN(C(=O)c3ccc4c(c3)OCO4)CC2)n1
1260	Cc1cccc(N2CCN(Cc3nc(-c4ccc(N5CCCC(C)C5)nc4)no3)CC2)c1C (centres undefined)
719	CCOc1ccc(-n2nnc(-c3nc(C)c(C(=O)N4CCC(C(N)=O)CC4)s3)c2C)cc1
736	COc1ccc(N2C=C(C(=O)N3CCCC3)S(=O)(=O)c3ccc(F)cc32)cc1
555	COCCc1noc(C2CN(C(=O)c3cn(C)cn3)C2)n1
817	Cc1c(Cl)cccc1NC(=O)Cn1c(C)nc2onc(C)c2c1=O
715	Cc1nc2c(NS(=O)(=O)c3ccc(F)cc3)cccn2n1

RP-LC retention time [s]	Compound
1170	Cc1oc(C(C)C)nc1C(=O)Nc1ccc(F)c(Cl)c1
603	CCn1ccc(C(=O)N2CCC(N3C(=O)C(O)C34CCCCC4)CC2)n1 (centres undefined)
698	O=C(NCCc1ccsc1)C1CC(=O)N(c2ccc(F)cc2)C1 (centres undefined)
647	O=C(CSc1ccc(N2CCCC2)nn1)Nc1ccc(Cl)cc1
743	O=C(Nc1cnc(N2CCOCC2)nc1)c1ccc(F)cc1Cl
788	O=C(c1cnccn1)N1CCCn2nc(-c3ccc(Cl)cc3)cc2C1
769	CCOC(=O)Cc1csc(NC(=O)Cc2csc(Nc3nc(C)cc(C)n3)n2)n1
700	O=C(CN1CCN(Cc2ccccc2)CC1)Nc1nc(-c2ccccc2)cs1
703	O=C(c1noc2ccc(S(=O)(=O)N3CCN(c4ccccn4)CC3)cc12)N1CCCCC1
1160	O=C(NCc1ccccc1)c1c(O)c2cccnc2n(-c2cccc(F)c2)c1=O
769	Cc1ccc(-c2ncccc2CNS(=O)(=O)c2ccc(C)c(F)c2)cc1
677	Cc1cc(=O)c2c(C)ccc(C)c2[nH]1
601	O=C(COc1cccc(C(F)(F)F)c1)NCCCn1nc(-c2ccncc2)ccc1=O
1150	Cc1ccc(S(=O)(=O)N2CCc3nc(-c4ccc(Cl)cc4)ncc3C2)cc1
818	Fc1ccc(-c2nc3cnccn3c2Nc2ccc3c(c2)OCCO3)cc1
932	COc1cccc(CNC(=O)C2(C)CCCN(S(=O)(=O)c3ccc(Cl)cc3)C2)c1 (centres undefined)
818	Cc1ccc(CNC(=O)c2ccc(NC(=O)C3CCC3)cc2N2CCOCC2)o1
937	CCCc1ccc(S(=O)(=O)N2C[C@@H](F)C[C@H]2C(=O)N2CCCCC2)cc1
584	Cc1cc2c(cc1S(=O)(=O)N1CCCC1C(=O)N1CCN(C3CCCCC3)CC1)OCC(=O)N2 (centres undefined)
736	Cc1cc(N(C)C)nc(N2CCN(C(=O)c3ccc(C(C)(C)C)cc3)CC2)n1

Compound	RP-LC retention time [s]
O=C(c1ccc([N+](=O)[O-])o1)N1CC2CC(C1)c1cccc(=O)n1C2 (centres undefined)	585
CCn1ccc(C(=O)N2CCC3(CC2)c2nccn2-c2ccccc2CN3CC(C)C)n1	599
COc1cc(NC(=O)CN2C(=O)CN=C(c3ccccc3Cl)c3cc(Cl)ccc32)cc(OC)c1	990
